Patent US20200237871A1, “METHODS FOR MITIGATING LIVER INJURY AND PROMOTING LIVER HYPERTROPHY, REGENERATION AND CELL ENGRAFTMENT IN CONJUNCTION WITH RADIATION AND/OR RADIOMIMETIC TREATMENTS” (Janssen Pharmaceutica NV, priority 2019, published 2020)
Entries after “also recorded” stand apart in the source; their conditions may differ.

Experiments:
[1] = system: mice with normal or cirrhotic (CCl4) livers; experiment: SPECT-CT residual perfusion defect volume after hepatic irradiation (Example 2); format: in vivo, mouse
Protocol: (§1) 8-12-week-old male and female Di-peptyl peptidase IV (DPPIV) −/− knockout mice and 8-12-week-old male and female C57Bl6 mice were used in this study. Animals were weighed in the beginning of the experiment and before tissue collection. All animals were housed in the Institute for Animal Studies at Albert Einstein College of medicine and fed regular rodent chow. All experiments were performed to according to protocols approved by Institutional Animal Care and Use Committee at Albert Einstein College of Medicine. Animals were made cirrhotic using CCl4 administration (intraperitoneal [IP] injections twice a week for at least 11 weeks).
(§2) Image-guided external beam irradiation was performed using a small animal radiation research platform (SARRP, Xstrahl Inc., Suwanee, Ga.). Mice were given gastrografin contrast through gavage to improve visualization of the gastrointestinal (GI) tract. After approximately 2 minutes, mice were positioned on a tubular couch and anesthetized with ˜2% Isofluorane (Isothesia, USP) in 2 L/min pure oxygen. A cone-beam computed tomography (CBCT) scan was acquired and a treatment plan irradiating the median lobe and right lobe was generated using the MuriPlan software. To minimize toxicity, in contrast to Example 1 where two parallel opposed fields were used, irradiation was performed using 2 arcs per liver target with equal dosing weights (likely resulting in more collateral lower dose radiation exposure compared to Example 1). Within the targeted lobes, the position of the isocenter was chosen to minimize irradiation of the GI tract, spine, and heart (the maximum dose to these organs was kept below 10 Gy). Targets were irradiated with 50 Gy X-rays at 220 kVp energy and 13 mA tube current (dose rate of 2.4-2.5 Gy/min) using a 1 mm copper filter for beam hardening. (Brodin et al., The Radiation Safety Journal, 2015, 109 Supp 3, S190).
(§3) TPOm was diluted in sterile PBS to a 10 mg/ml stock. The stock was stored at −20° C. and allowed to come to room temperature prior to administration. TPOm was administered as a single dose (300 μg/kg) via subcutaneous injection 10 minutes after the transplant procedure.
LSEC transplantation is a novel technique that requires a strong growth stimulus for effective liver repopulation (Guha et al., Hepatology, 2002, 36:354-62; Laconi et al., Am. J. Pathol., 1998, 153:319-29). Following isolation of LSECs, 500×10^5 LSECs are transplanted via intrasplenic injection into healthy adult mice anesthetized with Isoflurane (Isothesia, USP) 24 hrs post HIR. […]
SPECT with a radiotracer to assess the progression of RILD in-vivo has been developed and utilized in this work. […] The CT was set on medium resolution and was measured by a dosimeter and read by a third-party company, at an exposure of 5 mRem/hr for each CT scan/animal. […]

[2] = system: DPPIV−/− knockout mice; experiment: LSEC engraftment/repopulation of irradiated liver by DPPIV staining (Examples 2 and 3); format: in vivo, mouse
Protocol: as §1
as §2, with “To minimize toxicity, in contrast to Example 1 where two parallel opposed fields were used, irradiation was performed using 2 arcs per liver target with equal dosing weights (likely resulting in more collateral lower dose radiation exposure compared to Example 1).” left out, “hardening.” for “hardening. (Brodin et al., The Radiation Safety Journal, 2015, 109 Supp 3, S190).”
as §3
DPPIV was selected as a marker for engraftment of exogenous LSECs in the DPPIV (−/−) animals. […] Slide imaging was done using a Perkin Elmer P250 High Capacity Slide Scanner.
LSECs were isolated from the single-cell suspension using CD146 microbeads (Miltenyi Biotec GmbH #130-092-007).
Following isolation of LSECs, 500×10^5 LSECs are transplanted via intrasplenic injection into healthy adult mice anesthetized with Isoflurane (Isothesia, USP) 24 hrs post HIR. Buprenorphine is given post-op as an analgesic.
To test the efficacy of TPOm as an agent that can cause LSEC engraftment, DPPIV−/− knockout mice received 50GY hepatic irradiation (HIR) to the median and right lobes of the liver using external-beam CT-guided x-ray irradiation, and LSECs that express DPPIV (FIG. 2A).
The methods were identical to those described above with the exception that the LSEC transplant was administered 4-5 days post irradiation and the TPOm or Romiplostim were administered approximately 10 minutes post LSEC transplant.

methoxypolyethyleneglycol20000-propionyl-L-Isoleucyl-L-Glutamyl-Glycyl-L-Prolyl-L-Threonyl-L-Leucyl-L-Arginyl-L-Glutaminyl-L-2-Naphthylalanyl-L-Leucyl-L-Alanyl-L-Alanyl-L-Arginyl-Sarcosyl-Ne-(methoxypolyethyleneglycol20000-propionyl-L-Isoleucyl-L-Glutamyl-Glycyl-L-Prolyl-L-Threonyl-L-Leucyl-L-Arginyl-L-Glutaminyl-L-2-Naphthyl alanyl-L-Leucyl-L-Alanyl-L-Alanyl-L-Arginyl-Sarcosyl-)-Lysinamide [RWJ-800088]
perfusion defect of irradiated liver tissue (SPECT-CT), in words ([1]; LSEC transplant followed by TPOm injection post irradiation): perfusion recovery; also recorded: significant mitigation of defect formation
residual defect 2 months post radiation, cirrhotic liver ([1]; cirrhotic livers, RWJ-800088 and LSEC transplantation 24-hours post irradiation, listed as TPOm): significantly reduced
mean residual defect volume in the irradiated region ([1]; normal livers, RWJ-800088 2 or 24 hours prior to irradiation, without LSEC transplant, 2 months post HIR, listed as TPOm): significant reduction in defect volume
residual defect volume in the irradiated area ([1]; normal livers, RWJ-800088 and LSEC transplantation 24 hours after irradiation, 2 months post HIR, p=0.03, HIR only 71.4%): 18.2%
repopulation of irradiated liver by transplanted DPPIV(+/+) LSECs (DPPIV staining) ([2]; 50GY HIR + LSEC transplant 24 hrs post HIR, growth stimulus given after transplant, listed as TPOm): massive LSEC repopulation
animals with some level of hepatic repopulation ([2]; LSEC+TPOm+HIR): 6/7
Engraftment when LSEC transplant is administered 24 hours post irradiation ([2]; targeted liver irradiation (50 Gy)): Yes
Engraftment when LSEC transplant is administered 4-5 days post irradiation ([2]; targeted liver irradiation (50 Gy), drug approximately 10 minutes post LSEC transplant): Yes
